In ChEMBL document CHEMBL1146188, “Gram-scale synthesis of pinusolide and evaluation of its antileukemic potential” (2006) one finds Activity data, which are given here for one compound.

Experiment [1] has as its system BJAB. The experiment in a line: Antiproliferative activity against human BJAB cells after 24 hrs. It counts as functional.
For experiment [2], the system named is BJAB. Briefly: Antiproliferative activity against human BJAB cells after 48 hrs. The format is functional.
Experiment [3] deals with BJAB. Briefly: Induction of apoptosis of human BJAB cells as measured by DNA fragmentation at 100 uM after 72 hrs. It counts as functional.
The test system of experiment [4] is BJAB. Briefly: Loss of mitochondrial membrane potential in human BJAB cells at 100 uM. The format is functional, cell-based.
Experiment [5] deals with BJAB. Briefly: Induction of mitochondrial permeability transition in human BJAB cells after 48 hrs. It counts as functional, cell-based.
Experiment [6] concerns Leukemia cell. Briefly: Induction of apoptosis in ALL cells at 100 uM after 60 hrs. It counts as functional, cell-based. The following applies: Homo sapiens.
In experiment [7] the test system is Leukemia cell. The experiment in a line: Induction of apoptosis in AML cells at 100 uM after 60 hrs. It counts as functional, cell-based. Conditions: Homo sapiens.

Active and inactive are the calls of the source. The calls are words filed in the database; no cut-off is given here.

With `C=C1CC[C@@H]2[C@](C)(CCC[C@]2(C)C(=O)OC)[C@H]1CCC1=CCOC1=O` [PINUSOLIDE], the Activity in experiment [1] was 44%; in experiment [2], 86%; in experiment [3] it was 70%; in experiment [5] it was “Dose-dependent effect”. Moreover, the outcome in experiment [4], in experiment [6] and in experiment [7] was Active.
